Laboratory results as given in patent US5049654A, “Calcitonin gene related peptide derivatives” (Toyo Jozo Kabushiki Kaisha, priority 1986, dated 1991).
Positions of bridges follow the written chain, without caps; N, C: chain ends. Non-standard residues stand in square brackets, D forms with d. Residues, ends and D or L forms follow the SMILES beside them. Asu = N[C@@H](CCCCCC(=O)O)C(=O)O; Mpa = O=C(O)CCS

Assays:
[1] = system: Wistar rats; assay: Serum calcium reducing activity, i.v. into the tail vein of Wistar rats, atomic adsorption spectrophotometry; type: in vivo; conditions: rat; for reduction of serum calcium concentration as compared with control group: vs dissolving medium group
Experimental: (§1) Desalanyl-deamino-c-CGRP, desalanyl-[Asu^2,7 -c-CGRP and desalanyl-[Asp^3, Asu^2,7 ]-c-CGRP (each 80 μg), and c-CGRP (Japan. Patent Unexam. Publ. No. 61-273581) and known h-CGRP (each 80 μg for control group) dissolved in citrate buffer, pH 6.5, containing 0.1% bovine serum albumin (hereinafter designated dissolving medium) (1 ml) were administered intravenously into the tail vein of Wistar rats, body weight 80-90 g, 5-6 rats in one group, at 20 or 80 μg/kg. After 30 and 60 mins. of administration, blood samples were collected from the abdominal descending aorta. The serum calcium concentration was measured by atomic adsorption spectrophotometry. Serum phosphate was measured by a method according to Goldenberg et al. [Clin. Chem., 12: 872-882 (1966)].

[2] = system: Wistar rats; assay: Serum phosphate reducing activity, i.v. into the tail vein of Wistar rats, method of Goldenberg et al.; type: in vivo; conditions: rat; for reduction of serum phosphate concentration as compared with control group: vs dissolving medium group
Experimental: as §1

[3] = Physical properties: pI; type: physicochemical
[4] = test peptide 80 μg/kg vs c-CGRP at equivalent dose
[5] = test peptide 80 μg/kg vs h-CGRP 80 μg/kg
[6] = test peptide 20 μg/kg vs c-CGRP 20 μg/kg
[7] = test peptide 20 μg/kg vs h-CGRP 80 μg/kg

Row | SMILES | duration of serum calcium reducing activity ([1]; 80 μg/kg i.v.) | reduction of serum calcium concentration as compared with control group ([1]; 80 μg/kg i.v., FIGS. 1 and 3) | serum calcium reducing activity compared with c-CGRP [1, 4] | serum calcium reducing activity compared with h-CGRP [1, 5] | duration of serum phosphate reducing activity ([2]; 80 μg/kg i.v.) | reduction of serum phosphate concentration as compared with control group ([2]; 80 μg/kg i.v., FIGS. 2 and 4) | serum phosphate reducing activity compared with c-CGRP [2, 4] | serum phosphate reducing activity compared with h-CGRP [2, 5] | pI [3] | duration of serum calcium reducing activity ([1]; 20 μg/kg i.v.) [h] | reduction of serum calcium concentration as compared with control group ([1]; 20 μg/kg i.v., FIG. 1) | serum calcium reducing activity compared with c-CGRP [1, 6] | serum calcium reducing activity compared with h-CGRP [1, 7] | duration of serum phosphate reducing activity ([2]; 20 μg/kg i.v.) [h] | reduction of serum phosphate concentration as compared with control group ([2]; 20 μg/kg i.v., FIG. 2) | serum phosphate reducing activity compared with c-CGRP [2, 6] | serum phosphate reducing activity compared with h-CGRP [2, 7]
1 | CC(C)C[C@H](NC(=O)[C@H](CCCNC(=N)N)NC(=O)[C@H](Cc1c[nH]cn1)NC(=O)[C@@H](NC(=O)[C@@H](NC(=O)[C@@H]1CCCCCC(=O)N[C@@H](CC(=O)O)C(=O)N[C@@H]([C@@H](C)O)C(=O)N[C@@H](C)C(=O)N[C@@H]([C@@H](C)O)C(=O)N1)C(C)C)[C@@H](C)O)C(=O)N[C@@H](C)C(=O)N[C@@H](CC(=O)O)C(=O)N[C@@H](Cc1ccccc1)C(=O)N[C@@H](CC(C)C)C(=O)N[C@@H](CO)C(=O)N[C@@H](CCCNC(=N)N)C(=O)N[C@@H](CO)C(=O)NCC(=O)NCC(=O)N[C@H](C(=O)NCC(=O)N[C@@H](CCCCN)C(=O)N[C@@H](CC(N)=O)C(=O)N[C@@H](CC(N)=O)C(=O)N[C@@H](Cc1ccccc1)C(=O)N[C@H](C(=O)N1CCC[C@H]1C(=O)N[C@H](C(=O)N[C@@H](CC(N)=O)C(=O)N[C@H](C(=O)NCC(=O)N[C@@H](CO)C(=O)N[C@@H](CCCCN)C(=O)N[C@@H](C)C(=O)N[C@@H](Cc1ccccc1)C(N)=O)C(C)C)[C@@H](C)O)C(C)C)C(C)C [desalanyl-[Asp^3,Asu^2,7]-c-CGRP] (DTAT[Asu]VTHRLADFLSRSGGVGKNNFVPTNVGSKAF-NH2; lactam N-5) | more than 2 hours | more than 30% | significantly strong as compared with c-CGRP | stronger than that of h-CGRP | more than 2 hours | more than 30% | significantly strong as compared with c-CGRP | stronger than that of h-CGRP | more than 10.25 | – | – | – | – | – | – | – | –
2 | CC(C)C[C@H](NC(=O)[C@H](CCCNC(=N)N)NC(=O)[C@H](Cc1c[nH]cn1)NC(=O)[C@@H](NC(=O)[C@@H](NC(=O)[C@@H]1CCCCCC(=O)N[C@@H](CC(N)=O)C(=O)N[C@@H]([C@@H](C)O)C(=O)N[C@@H](C)C(=O)N[C@@H]([C@@H](C)O)C(=O)N1)C(C)C)[C@@H](C)O)C(=O)N[C@@H](C)C(=O)N[C@@H](CC(=O)O)C(=O)N[C@@H](Cc1ccccc1)C(=O)N[C@@H](CC(C)C)C(=O)N[C@@H](CO)C(=O)N[C@@H](CCCNC(=N)N)C(=O)N[C@@H](CO)C(=O)NCC(=O)NCC(=O)N[C@H](C(=O)NCC(=O)N[C@@H](CCCCN)C(=O)N[C@@H](CC(N)=O)C(=O)N[C@@H](CC(N)=O)C(=O)N[C@@H](Cc1ccccc1)C(=O)N[C@H](C(=O)N1CCC[C@H]1C(=O)N[C@H](C(=O)N[C@@H](CC(N)=O)C(=O)N[C@H](C(=O)NCC(=O)N[C@@H](CO)C(=O)N[C@@H](CCCCN)C(=O)N[C@@H](C)C(=O)N[C@@H](Cc1ccccc1)C(N)=O)C(C)C)[C@@H](C)O)C(C)C)C(C)C [desalanyl-[Asu^2,7]-c-CGRP] (NTAT[Asu]VTHRLADFLSRSGGVGKNNFVPTNVGSKAF-NH2; lactam N-5) | more than 2 hours | more than 30% | significantly strong as compared with c-CGRP | stronger than that of h-CGRP | more than 2 hours | more than 30% | significantly strong as compared with c-CGRP | stronger than that of h-CGRP | more than 10.25 | – | – | – | – | – | – | – | –
3 | CC(C)C[C@H](NC(=O)[C@H](CCCNC(=N)N)NC(=O)[C@H](Cc1c[nH]cn1)NC(=O)[C@@H](NC(=O)[C@@H](NC(=O)[C@@H]1CSSCCC(=O)N[C@@H](CC(N)=O)C(=O)N[C@@H]([C@@H](C)O)C(=O)N[C@@H](C)C(=O)N[C@@H]([C@@H](C)O)C(=O)N1)C(C)C)[C@@H](C)O)C(=O)N[C@@H](C)C(=O)N[C@@H](CC(=O)O)C(=O)N[C@@H](Cc1ccccc1)C(=O)N[C@@H](CC(C)C)C(=O)N[C@@H](CO)C(=O)N[C@@H](CCCNC(=N)N)C(=O)N[C@@H](CO)C(=O)NCC(=O)NCC(=O)N[C@H](C(=O)NCC(=O)N[C@@H](CCCCN)C(=O)N[C@@H](CC(N)=O)C(=O)N[C@@H](CC(N)=O)C(=O)N[C@@H](Cc1ccccc1)C(=O)N[C@H](C(=O)N1CCC[C@H]1C(=O)N[C@H](C(=O)N[C@@H](CC(N)=O)C(=O)N[C@H](C(=O)NCC(=O)N[C@@H](CO)C(=O)N[C@@H](CCCCN)C(=O)N[C@@H](C)C(=O)N[C@@H](Cc1ccccc1)C(N)=O)C(C)C)[C@@H](C)O)C(C)C)C(C)C [desalanyl-deamino-c-CGRP] ([Mpa]NTATCVTHRLADFLSRSGGVGKNNFVPTNVGSKAF-NH2; disulfide 1-6) | ≥ 2 h | more than 30% | stronger | stronger than those of h-CGRP | ≥ 2 h | more than 30% | stronger | stronger than those of h-CGRP | more than 10.25 | ≥ 2 | more than 30% | significantly strong as compared with c-CGRP | stronger than those of h-CGRP administered in quadruple the amounts | ≥ 2 | more than 30% | significantly strong as compared with c-CGRP | stronger than those of h-CGRP administered in quadruple the amounts
